Values after ≈ are worked out from the molar mass of the structure shown. Active and inactive are the calls of the source. The calls are words filed in the database; no cut-off is given here.
Experiments:
Proteus vulgaris [1] = experiment: Antimicrobial activity against Proteus vulgaris MTCC 1771 assessed as growth inhibition at 100 ug/ml after 24 hr by agar streak dilution method; assay type: functional, organism-based
Klebsiella pneumoniae [2] = experiment: Antimicrobial activity against Klebsiella pneumoniae MTCC 109 assessed as diameter of growth inhibition zone after 24 hr; assay type: functional
Escherichia coli [3] = experiment: Antimicrobial activity against Escherichia coli MTCC 739 assessed as growth inhibition at 100 ug/ml after 24 hr by agar streak dilution method; assay type: functional, organism-based
Aspergillus niger [4] = experiment: Antimicrobial activity against Aspergillus niger MTCC 282 assessed as growth inhibition after 48 hr by agar streak dilution method; assay type: functional; details: MTCC 282, 48 h
Aspergillus fumigatus [5] = experiment: Antimicrobial activity against Aspergillus fumigatus MTCC 343 assessed as diameter of growth inhibition zone after 48 hr; assay type: functional
Candida albicans [6] = experiment: Antimicrobial activity against Candida albicans MTCC 183 assessed as diameter of growth inhibition zone after 48 hr; assay type: functional
Bacillus cereus [7] = experiment: Antimicrobial activity against Bacillus cereus MTCC 430 assessed as growth inhibition after 24 hr by agar streak dilution method; assay type: functional; details: MTCC 430, 24 h
Aspergillus clavatus [8] = experiment: Antimicrobial activity against Aspergillus clavatus MTCC 1323 assessed as diameter of growth inhibition zone after 48 hr; assay type: functional
Staphylococcus aureus [9] = experiment: Antimicrobial activity against Staphylococcus aureus MTCC 96 assessed as growth inhibition at 100 ug/ml after 24 hr by agar streak dilution method; assay type: functional, organism-based
Pseudomonas aeruginosa [10] = experiment: Antimicrobial activity against Pseudomonas aeruginosa MTCC 741 assessed as growth inhibition at 100 ug/ml after 24 hr by agar streak dilution method; assay type: functional, organism-based
[11] = test system: Mycobacterium tuberculosis; experiment: Antituberculosis activity against Mycobacterium tuberculosis H37Rv assessed as growth inhibition after 12 to 28 days by L-J MIC method; assay type: functional; details: for MIC: Mycobacterium tuberculosis, H37Rv
Shigella flexneri [12] = experiment: Antimicrobial activity against Shigella flexneri MTCC1457 assessed as growth inhibition at 100 ug/ml after 24 hr by agar streak dilution method; assay type: functional, organism-based
Bacillus cereus [13] = experiment: Antimicrobial activity against Bacillus cereus MTCC 430 assessed as diameter of growth inhibition zone after 24 hr; assay type: functional
Salmonella typhi [14] = experiment: Antimicrobial activity against Salmonella enterica subsp. enterica serovar Typhi MTCC 733 assessed as growth inhibition after 24 hr by agar streak dilution method; assay type: functional; details: MTCC 733, 24 h
Candida albicans [15] = experiment: Antimicrobial activity against Candida albicans MTCC 183 assessed as growth inhibition after 48 hr by agar streak dilution method; assay type: functional; details: MTCC 183, 48 h
Aspergillus niger [16] = experiment: Antimicrobial activity against Aspergillus niger MTCC 282 assessed as diameter of growth inhibition zone after 48 hr; assay type: functional
Klebsiella pneumoniae [17] = experiment: Antimicrobial activity against Klebsiella pneumoniae MTCC 109 assessed as growth inhibition after 24 hr by agar streak dilution method; assay type: functional; details: MTCC 109, 24 h
Aspergillus fumigatus [18] = experiment: Antimicrobial activity against Aspergillus fumigatus MTCC 343 assessed as growth inhibition after 48 hr by agar streak dilution method; assay type: functional; details: MTCC 343, 48 h
Salmonella typhi [19] = experiment: Antimicrobial activity against Salmonella enterica subsp. enterica serovar Typhi MTCC 733 assessed as diameter of growth inhibition zone after 24 hr; assay type: functional
Aspergillus clavatus [20] = experiment: Antimicrobial activity against Aspergillus clavatus MTCC 1323 assessed as growth inhibition after 48 hr by agar streak dilution method; assay type: functional; details: MTCC 1323, 48 h
Staphylococcus aureus [21] = experiment: Antimicrobial activity against Staphylococcus aureus MTCC 96 assessed as growth inhibition after 24 hr by agar streak dilution method; assay type: functional; details: MTCC 96, 24 h
Escherichia coli [22] = experiment: Antimicrobial activity against Escherichia coli MTCC 739 assessed as diameter of growth inhibition zone after 24 hr; assay type: functional
Bacillus cereus [23] = experiment: Antimicrobial activity against Bacillus cereus MTCC 430 assessed as growth inhibition at 100 ug/ml after 24 hr by agar streak dilution method; assay type: functional, organism-based
Shigella flexneri [24] = experiment: Antimicrobial activity against Shigella flexneri MTCC1457 assessed as growth inhibition after 24 hr by agar streak dilution method; assay type: functional; details: MTCC1457, 24 h
Shigella flexneri [25] = experiment: Antimicrobial activity against Shigella flexneri MTCC1457 assessed as diameter of growth inhibition zone after 24 hr; assay type: functional
Staphylococcus aureus [26] = experiment: Antimicrobial activity against Staphylococcus aureus MTCC 96 assessed as diameter of growth inhibition zone after 24 hr; assay type: functional
Escherichia coli [27] = experiment: Antimicrobial activity against Escherichia coli MTCC 739 assessed as growth inhibition after 24 hr by agar streak dilution method; assay type: functional; details: MTCC 739, 24 h
Pseudomonas aeruginosa [28] = experiment: Antimicrobial activity against Pseudomonas aeruginosa MTCC 741 assessed as growth inhibition after 24 hr by agar streak dilution method; assay type: functional; details: MTCC 741, 24 h
Proteus vulgaris [29] = experiment: Antimicrobial activity against Proteus vulgaris MTCC 1771 assessed as diameter of growth inhibition zone after 24 hr; assay type: functional
Pseudomonas aeruginosa [30] = experiment: Antimicrobial activity against Pseudomonas aeruginosa MTCC 741 assessed as diameter of growth inhibition zone after 24 hr; assay type: functional
Proteus vulgaris [31] = experiment: Antimicrobial activity against Proteus vulgaris MTCC 1771 assessed as growth inhibition after 24 hr by agar streak dilution method; assay type: functional; details: MTCC 1771, 24 h

## O=C(/C=C/c1ccccc1)c1ccc(Nc2cc(=O)oc3ccccc23)cc1
Proteus vulgaris [1]
  growth inhibition (GI): inactive
Klebsiella pneumoniae [2]
  diameter of the inhibition zone (DIZ): <10 mm
Escherichia coli [3]
  growth inhibition (GI): inactive
Aspergillus niger [4]
  MIC: 100 µg/mL (≈ 272 µM)
Aspergillus fumigatus [5]
  diameter of the inhibition zone (DIZ): 12 mm
Candida albicans [6]
  diameter of the inhibition zone (DIZ): <10 mm
Bacillus cereus [7]
  MIC: 100 µg/mL (≈ 272 µM)
Aspergillus clavatus [8]
  diameter of the inhibition zone (DIZ): 15 mm
Staphylococcus aureus [9]
  growth inhibition (GI): inactive
Pseudomonas aeruginosa [10]
  growth inhibition (GI): inactive
[11]
  growth inhibition (GI): 95%
  MIC: 1000 µg/mL (≈ 2720 µM)
Shigella flexneri [12]
  growth inhibition (GI): inactive
Bacillus cereus [13]
  diameter of the inhibition zone (DIZ): <10 mm
Salmonella typhi [14]
  MIC: 100 µg/mL (≈ 272 µM)
Candida albicans [15]
  MIC: 100 µg/mL (≈ 272 µM)
Aspergillus niger [16]
  diameter of the inhibition zone (DIZ): <10 mm
Klebsiella pneumoniae [17]
  MIC: 100 µg/mL (≈ 272 µM)
Aspergillus fumigatus [18]
  MIC: 100 µg/mL (≈ 272 µM)
Salmonella typhi [19]
  diameter of the inhibition zone (DIZ): 11 mm
Aspergillus clavatus [20]
  MIC: 100 µg/mL (≈ 272 µM)

## O=C(/C=C/c1ccc([N+](=O)[O-])cc1)c1ccc(Nc2cc(=O)oc3ccccc23)cc1
Proteus vulgaris [1]
  growth inhibition (GI): inactive
Staphylococcus aureus [21]
  MIC: 100 µg/mL (≈ 242 µM)
Escherichia coli [22]
  diameter of the inhibition zone (DIZ): <10 mm
Klebsiella pneumoniae [2]
  diameter of the inhibition zone (DIZ): 11 mm
Aspergillus niger [4]
  MIC: 100 µg/mL (≈ 242 µM)
Aspergillus fumigatus [5]
  diameter of the inhibition zone (DIZ): <10 mm
Candida albicans [6]
  diameter of the inhibition zone (DIZ): 10 mm
Bacillus cereus [23]
  growth inhibition (GI): inactive
Shigella flexneri [24]
  MIC: 100 µg/mL (≈ 242 µM)
Shigella flexneri [25]
  diameter of the inhibition zone (DIZ): 13 mm
Aspergillus clavatus [8]
  diameter of the inhibition zone (DIZ): 12 mm
Pseudomonas aeruginosa [10]
  growth inhibition (GI): inactive
[11]
  growth inhibition (GI): 95%
  MIC: 1000 µg/mL (≈ 2420 µM)
Staphylococcus aureus [26]
  diameter of the inhibition zone (DIZ): <10 mm
Salmonella typhi [14]
  MIC: 100 µg/mL (≈ 242 µM)
Candida albicans [15]
  MIC: 100 µg/mL (≈ 242 µM)
Aspergillus niger [16]
  diameter of the inhibition zone (DIZ): 11 mm
Klebsiella pneumoniae [17]
  MIC: 100 µg/mL (≈ 242 µM)
Aspergillus fumigatus [18]
  MIC: 100 µg/mL (≈ 242 µM)
Salmonella typhi [19]
  diameter of the inhibition zone (DIZ): 14 mm
Escherichia coli [27]
  MIC: 100 µg/mL (≈ 242 µM)
Aspergillus clavatus [20]
  MIC: 100 µg/mL (≈ 242 µM)

## Cc1ccc(/C=C/C(=O)c2ccc(Nc3cc(=O)oc4ccccc34)cc2)cc1
Staphylococcus aureus [21]
  MIC: 100 µg/mL (≈ 262 µM)
Escherichia coli [22]
  diameter of the inhibition zone (DIZ): <10 mm
Klebsiella pneumoniae [2]
  diameter of the inhibition zone (DIZ): 10 mm
Aspergillus niger [4]
  MIC: 100 µg/mL (≈ 262 µM)
Aspergillus fumigatus [5]
  diameter of the inhibition zone (DIZ): 13 mm
Pseudomonas aeruginosa [28]
  MIC: 100 µg/mL (≈ 262 µM)
Candida albicans [6]
  diameter of the inhibition zone (DIZ): 11 mm
Bacillus cereus [7]
  MIC: 100 µg/mL (≈ 262 µM)
Shigella flexneri [24]
  MIC: 50 µg/mL (≈ 131 µM)
Shigella flexneri [25]
  diameter of the inhibition zone (DIZ): 18 mm
Aspergillus clavatus [8]
  diameter of the inhibition zone (DIZ): <10 mm
Proteus vulgaris [29]
  diameter of the inhibition zone (DIZ): 19 mm
[11]
  growth inhibition (GI): 96%
  MIC: 500 µg/mL (≈ 1310 µM)
Staphylococcus aureus [26]
  diameter of the inhibition zone (DIZ): 14 mm
Bacillus cereus [13]
  diameter of the inhibition zone (DIZ): 15 mm
Salmonella typhi [14]
  MIC: 100 µg/mL (≈ 262 µM)
Candida albicans [15]
  MIC: 100 µg/mL (≈ 262 µM)
Aspergillus niger [16]
  diameter of the inhibition zone (DIZ): 14 mm
Klebsiella pneumoniae [17]
  MIC: 100 µg/mL (≈ 262 µM)
Aspergillus fumigatus [18]
  MIC: 100 µg/mL (≈ 262 µM)
Salmonella typhi [19]
  diameter of the inhibition zone (DIZ): 13 mm
Escherichia coli [27]
  MIC: 100 µg/mL (≈ 262 µM)
Pseudomonas aeruginosa [30]
  diameter of the inhibition zone (DIZ): 15 mm
Proteus vulgaris [31]
  MIC: 50 µg/mL (≈ 131 µM)
Aspergillus clavatus [20]
  MIC: 100 µg/mL (≈ 262 µM)

## Cc1ccc(-c2cc(-c3ccc(Nc4cc(=O)oc5ccccc45)cc3)nc(N)c2C#N)cc1
Staphylococcus aureus [21]
  MIC: 25 µg/mL (≈ 56.2 µM)
Escherichia coli [22]
  diameter of the inhibition zone (DIZ): 20 mm
Klebsiella pneumoniae [2]
  diameter of the inhibition zone (DIZ): 18 mm
Aspergillus niger [4]
  MIC: 12.5 µg/mL (≈ 28.1 µM)
Aspergillus fumigatus [5]
  diameter of the inhibition zone (DIZ): 21 mm
Pseudomonas aeruginosa [28]
  MIC: 12.5 µg/mL (≈ 28.1 µM)
Candida albicans [6]
  diameter of the inhibition zone (DIZ): 28 mm
Bacillus cereus [7]
  MIC: 25 µg/mL (≈ 56.2 µM)
Shigella flexneri [24]
  MIC: 12.5 µg/mL (≈ 28.1 µM)
Shigella flexneri [25]
  diameter of the inhibition zone (DIZ): 25 mm
Aspergillus clavatus [8]
  diameter of the inhibition zone (DIZ): 20 mm
Proteus vulgaris [29]
  diameter of the inhibition zone (DIZ): 24 mm
[11]
  growth inhibition (GI): 98%
  MIC: 100 µg/mL (≈ 225 µM)
Staphylococcus aureus [26]
  diameter of the inhibition zone (DIZ): 21 mm
Bacillus cereus [13]
  diameter of the inhibition zone (DIZ): 23 mm
Salmonella typhi [14]
  MIC: 25 µg/mL (≈ 56.2 µM)
Candida albicans [15]
  MIC: 3.12 µg/mL (≈ 7.02 µM)
Aspergillus niger [16]
  diameter of the inhibition zone (DIZ): 24 mm
Klebsiella pneumoniae [17]
  MIC: 50 µg/mL (≈ 112 µM)
Aspergillus fumigatus [18]
  MIC: 25 µg/mL (≈ 56.2 µM)
Salmonella typhi [19]
  diameter of the inhibition zone (DIZ): 21 mm
Escherichia coli [27]
  MIC: 25 µg/mL (≈ 56.2 µM)
Pseudomonas aeruginosa [30]
  diameter of the inhibition zone (DIZ): 22 mm
Proteus vulgaris [31]
  MIC: 12.5 µg/mL (≈ 28.1 µM)
Aspergillus clavatus [20]
  MIC: 25 µg/mL (≈ 56.2 µM)

## Nc1nc(-c2ccc(Nc3cc(=O)oc4ccccc34)cc2)cc(-c2ccccc2O)n1
Staphylococcus aureus [21]
  MIC: 50 µg/mL (≈ 118 µM)
Escherichia coli [22]
  diameter of the inhibition zone (DIZ): 19 mm
Klebsiella pneumoniae [2]
  diameter of the inhibition zone (DIZ): 21 mm
Aspergillus niger [4]
  MIC: 25 µg/mL (≈ 59.2 µM)
Aspergillus fumigatus [5]
  diameter of the inhibition zone (DIZ): 23 mm
Pseudomonas aeruginosa [28]
  MIC: 50 µg/mL (≈ 118 µM)
Candida albicans [6]
  diameter of the inhibition zone (DIZ): 18 mm
Bacillus cereus [7]
  MIC: 50 µg/mL (≈ 118 µM)
Shigella flexneri [24]
  MIC: 25 µg/mL (≈ 59.2 µM)
Shigella flexneri [25]
  diameter of the inhibition zone (DIZ): 20 mm
Aspergillus clavatus [8]
  diameter of the inhibition zone (DIZ): 25 mm
Proteus vulgaris [29]
  diameter of the inhibition zone (DIZ): 19 mm
[11]
  growth inhibition (GI): 97%
  MIC: 250 µg/mL (≈ 592 µM)
Staphylococcus aureus [26]
  diameter of the inhibition zone (DIZ): 18 mm
Bacillus cereus [13]
  diameter of the inhibition zone (DIZ): 19 mm
Salmonella typhi [14]
  MIC: 100 µg/mL (≈ 237 µM)
Candida albicans [15]
  MIC: 50 µg/mL (≈ 118 µM)
Aspergillus niger [16]
  diameter of the inhibition zone (DIZ): 21 mm
Klebsiella pneumoniae [17]
  MIC: 12.5 µg/mL (≈ 29.6 µM)
Aspergillus fumigatus [18]
  MIC: 12.5 µg/mL (≈ 29.6 µM)
Salmonella typhi [19]
  diameter of the inhibition zone (DIZ): 17 mm
Escherichia coli [27]
  MIC: 50 µg/mL (≈ 118 µM)
Pseudomonas aeruginosa [30]
  diameter of the inhibition zone (DIZ): 18 mm
Proteus vulgaris [31]
  MIC: 50 µg/mL (≈ 118 µM)
Aspergillus clavatus [20]
  MIC: 6.25 µg/mL (≈ 14.8 µM)

From ChEMBL document CHEMBL3045446, “In vitro antimicrobial and antimycobacterial activity of some chalcones and their derivatives” (2013)
